The target of this test is T1, protein tyrosine phosphatase 1B (PTP1B) (Homo sapiens, UniProt P18031).
T1 construct: gene PTPN1; PTP1B1-321
T1 sequence (P18031 1-321): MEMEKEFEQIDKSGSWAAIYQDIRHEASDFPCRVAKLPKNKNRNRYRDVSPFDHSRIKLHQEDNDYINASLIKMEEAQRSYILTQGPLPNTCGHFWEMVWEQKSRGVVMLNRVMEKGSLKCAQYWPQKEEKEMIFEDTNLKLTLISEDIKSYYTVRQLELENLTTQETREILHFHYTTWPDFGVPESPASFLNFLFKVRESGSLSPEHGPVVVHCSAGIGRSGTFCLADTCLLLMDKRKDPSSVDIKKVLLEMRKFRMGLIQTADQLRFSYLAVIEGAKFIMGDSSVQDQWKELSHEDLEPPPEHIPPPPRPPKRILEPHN
Put plainly: pNPP hydrolysis assay with recombinant human PTP1B, absorbance at […] nm. Type of test: biochemical.

For the molecule `Oc1cc(Cc2cc(O)c(O)c(Br)c2Cc2cc(O)c(O)c(Br)c2Br)c(Br)c(Br)c1O` [CYC31, 3-bromo-4,5-Bis(2,3-dibromo-4,5-dihydroxybenzyl)-1,2-benzenediol], the “pNPP hydrolysis assay with recombinant human PTP1B, absorbance at 405 nm” value was “As shown in Figure 1B, PTP1B was significantly inactivated by CYC31 in a concentration-dependent manner”.

Values taken from PMC7281472, “CYC31, A Natural Bromophenol PTP1B Inhibitor, Activates Insulin Signaling and Improves Long Chain-Fatty Acid Oxidation in C2C12 Myotubes” (Marine Drugs, 2020).
